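Values below derive from 48-hour exposures of cells grown in 96-well plates, with endpoints linearly interpolated between the two concentrations bracketing the appropriate inhibition level. Definition used: TGI = concentration required for complete inhibition of growth.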

Test in all cases: growth of human tumour cells (NCI), 48 h
The subject of assay [1] is TK-10 renal.
Assay [2] relates to UO-31 renal.
For assay [3], the system named is A549 NSCLC.
Assay [4] concerns MDA-MB-231 breast.
Assay [5] has as its system SK-OV-3 ovarian.
In assay [6] the test system is KM12 colon.
Assay [7] deals with HCC-2998 colon.
Assay [8] has as its system HCT-15 colon.
Assay [9] relates to M14 melanoma.
The subject of assay [10] is SR leukemia.

On to `COc1ccc(CCN2C(=O)C(=O)C(C(=O)c3ccccc3)C2c2ccccc2)cc1OC` (centres undefined), for which the TGI in assay [1], in [2], in assay [3], in assay [4], in assay [5] and in [6] was above 100 µM throughout. Also, the TGI in assay [7], in assay [8], in assay [9] and in [10] was above 100 µM throughout.

Consider `COc1cccc(O)c1-c1cc(=O)c2c(O)c(OC)c(OC)c(OC)c2o1`, for which the TGI in [1] is above 100 µM; in [2], above 100 µM; in assay [3], above 100 µM; in assay [4], above 100 µM; in [5], 89.3 µM; in assay [6], 77.8 µM. Further, the TGI in [7] was 25.4 µM; in assay [8], above 100 µM; in assay [9], 68.4 µM; in assay [10], 40.1 µM.

In the case of `COC(=O)[C@]1(CCC(C)=O)C(=O)C=CN([C@H](C)c2ccccc2)[C@@H]1Cc1ccc(OC)c(OCc2ccccc2)c1I`, the TGI in [1] is 56.8 µM; in assay [2], 31.6 µM; in [3], 73.5 µM; in assay [4] it was 35.7 µM; in assay [5], above 100 µM; in assay [6], 43.1 µM. Further, the TGI is 29.2 µM in assay [7], 43.5 µM in [8], 28.2 µM in assay [9] and above 100 µM in [10].

Turning to `COC1=C(OC)C(=O)c2cc(C)c(=O)c(C)cc2C1=O`, the TGI in assay [1] is 34 µM; in [2], 27.9 µM; in assay [3], 38 µM; in assay [4] it was 20.7 µM; in [5] it was 41.8 µM; in [6], 36.6 µM. In addition, the TGI in assay [7] was 55.1 µM; in [8] it was 45.7 µM; in [9] it was 30.8 µM; in [10] it was above 22.6 µM.

For the molecule `Cc1nnc(NS(=O)(=O)c2ccc(N=Nc3c(O)c(C(=O)O)cc4ccccc34)cc2)s1`, the TGI in assay [1], in assay [2], in assay [3], in assay [4], in [5] and in [6] was above 100 µM throughout. Also, the TGI in [7], in [8], in assay [9] and in assay [10] was above 100 µM each time.

Take `C[C@H]1CC(=O)C[C@@H]2CC[C@@H]3[C@H](CC[C@]4(C)C(OC(=O)c5cccc6c(=O)c7ccccc7[nH]c56)CC[C@@H]34)[C@]21C` (some centres undefined): the TGI in assay [1] was above 100 µM; in [2] it was 95.1 µM; in [3], above 100 µM; in assay [4], above 100 µM; in [5] it was above 100 µM; in assay [6], above 100 µM. Also, the TGI in assay [7] was above 100 µM; in assay [8] it was above 100 µM; in assay [9], above 100 µM; in assay [10] it was 21.6 µM.

With `CC(=O)O[C@H]1CC[C@@]2(C)C(=CC[C@@H]3[C@@H]2CC[C@]2(C)C(=O)/C(=C\c4ccccc4)C[C@@H]32)C1`, the TGI in assay [1], in assay [2], in assay [3], in assay [4], in assay [5] and in assay [6] was above 100 µM each time. In addition, the TGI in assay [7], in assay [8], in assay [9] and in assay [10] was above 100 µM throughout.

`CCOC(=O)n1c(=O)nc2c3c(ncn21)Oc1c(c(-c2ccccc2)nn1-c1ccccc1)C3c1ccc(Cl)cc1` (centres undefined): the TGI in [1] is 3.07 µM; in assay [2], 2.85 µM; in assay [3] it was 3.01 µM; in assay [4], 2.7 µM; in [5], 6.47 µM; in assay [6] it was 2.89 µM. In addition, the TGI in [7] was 1.97 µM; in assay [8], 2.4 µM; in assay [9], 3.33 µM; in [10] it was 3.5 µM.

On to `CC(=O)OCC1OC(Sc2nc(-c3ccccc3)c(C#N)c(=O)n2C2OC(COC(C)=O)C(OC(C)=O)C(OC(C)=O)C2OC(C)=O)C(OC(C)=O)C(OC(C)=O)C1OC(C)=O` (centres undefined), for which the TGI in assay [1], in assay [2], in assay [3], in assay [4], in [5] and in assay [6] was above 100 µM in each case. For the same molecule, the TGI in assay [7], in assay [8], in assay [9] and in assay [10] was above 100 µM each time.

Consider `COCc1nc(C#N)c(N)o1`, for which the TGI in [1], in assay [2], in [3], in assay [4], in assay [5] and in assay [6] was above 10 µM each time. Besides, the TGI in assay [7], in assay [8], in [9] and in assay [10] was above 10 µM in each case.

Turning to `O=[N+]([O-])C1=Cc2c(O)ccc(O)c2C2c3ccccc3NC12` (centres undefined), the TGI in assay [1] was 30 µM; in [2] it was 11.8 µM; in [3], 37.5 µM; in assay [4], 31.4 µM; in assay [5], above 100 µM; in [6], 24.4 µM. Moreover, the TGI was 24.7 µM in [7], 36.4 µM in assay [8], 28.2 µM in [9] and above 64.3 µM in assay [10].

Regarding `CCc1c(N=[N+]=[N-])c2ccccc2oc1=O`, the TGI in [1], in [2], in [3], in assay [4], in [5] and in assay [6] was above 100 µM each time. Also, the TGI in [7], in assay [8], in [9] and in assay [10] was above 100 µM in each case.

Turning to `COc1cc(CCNC2=CC(=O)c3ncccc3C2=O)ccc1O`, the TGI was determined as 70.8 µM in assay [1]; 17.3 µM in assay [2]; 6.44 µM in [3]; 6.24 µM in assay [4]; 41.7 µM in assay [5]; 24.9 µM in assay [6]. The TGI in assay [7] was 16.8 µM; in [8], above 34.6 µM; in [9], 3.05 µM; in assay [10], 38.7 µM.

Take `CCOC(=O)c1c2ccccc2n2c(=O)n(-c3ccccc3)nnc12`: the TGI is above 100 µM in assay [1]; above 100 µM in assay [2]; above 100 µM in assay [3]; above 100 µM in [4]; above 85 µM in assay [5]; above 100 µM in assay [6]. Further, the TGI is above 100 µM in assay [7], above 100 µM in assay [8], above 100 µM in assay [9] and above 25.1 µM in assay [10].

With `COC(=O)c1nc2n(n1)-c1ccccc1C(=O)N(Cc1ccccc1)C2`, the TGI in [1], in [2], in assay [3], in [4], in assay [5] and in assay [6] was above 100 µM each time. Besides, the TGI in assay [7], in [8], in assay [9] and in [10] was above 100 µM throughout.

For `Nc1nc(NCc2ccccc2)cc(NCc2ccccc2)n1`, the TGI in assay [1] stood at 22.3 µM; in [2], 21 µM; in assay [3], 92 µM; in [4], 22.4 µM; in assay [5], 33.7 µM; in assay [6], 27.9 µM. The TGI is 24.6 µM in assay [7], 18.3 µM in assay [8], 39.5 µM in [9] and above 100 µM in assay [10].

For `NCCCc1nonc1C(=O)O`, the TGI in assay [1], in assay [2], in assay [3], in assay [4], in assay [5] and in assay [6] was above 100 µM in each case. The TGI in assay [7], in [8], in assay [9] and in assay [10] was above 100 µM each time.

Regarding `NS(=O)(=O)c1ccc(NNc2c3ccccc3nc3c(C(=O)Nc4ccc(S(N)(=O)=O)cc4)cccc23)cc1`, the TGI in assay [1], in assay [2], in [3], in assay [4], in assay [5] and in assay [6] was above 100 µM in each case. Moreover, the TGI in assay [7] was 86.7 µM; in assay [8], above 100 µM; in [9], above 100 µM; in [10] it was 57.9 µM.

In the case of `COc1cc(Nc2nc(NS(=O)(=O)c3cc(C)c(Cl)cc3S)n[nH]2)cc(OC)c1OC`, the TGI in assay [1], in assay [2], in assay [3], in [4], in assay [5] and in assay [6] was above 100 µM throughout. The TGI in [7], in [8], in [9] and in assay [10] was above 100 µM throughout.

`Cn1c2ccccc2n2c3ccccc3c3nnc(N)c-3c12`: the TGI in assay [1], in assay [2], in assay [3], in assay [4], in [5] and in assay [6] was above 100 µM each time. The TGI in assay [7], in assay [8], in assay [9] and in assay [10] was above 100 µM each time.

On to `COc1ccccc1Nc1nc(N)nc(N)c1N`, for which the TGI in assay [1] was above 100 µM; in [2] it was above 100 µM; in assay [3] it was above 100 µM; in assay [4] it was 99.6 µM; in assay [5], above 100 µM; in [6], above 100 µM. The TGI in assay [7] was above 100 µM; in assay [8], above 100 µM; in [9] it was above 100 µM; in [10], 45.6 µM.

As to `C(#C[C@@]12CCC[C@@H]1NCO2)c1ccc2c(c1)OCO2`, the TGI in assay [1], in assay [2], in assay [3], in assay [4], in assay [5] and in [6] was above 100 µM in each case. The TGI in [7] is 34.6 µM; in assay [8] it was above 100 µM; in assay [9], 73.1 µM; in [10], above 100 µM.

In the case of `NS(=O)(=O)c1ccc(NCc2cccc3c(=O)c4ccc(Cl)cc4oc23)cc1`, the TGI in assay [1] is above 100 µM; in assay [2] it was above 93.2 µM; in assay [3], above 100 µM; in assay [4] it was above 100 µM; in assay [5] it was above 100 µM; in [6], above 70.7 µM. For the same molecule, the TGI is above 100 µM in assay [7], above 100 µM in [8], above 93.1 µM in [9] and above 51.3 µM in assay [10].

For the molecule `CC(=O)OC(C(=O)NNC(=O)OC(C)(C)C)c1ccccc1` (centres undefined), the TGI in [1], in assay [2], in assay [3], in assay [4], in assay [5] and in assay [6] was above 100 µM each time. Also, the TGI in assay [7], in [8], in assay [9] and in [10] was above 100 µM each time.

As for `CC1=C(C(N)=O)C(c2ccncc2)C(C#N)C(=O)N1` (centres undefined), the TGI in assay [1], in assay [2], in [4], in assay [5], in assay [6] and in [7] was above 100 µM throughout. In addition, the TGI in assay [8], in assay [9] and in assay [10] was above 100 µM in each case.

In the case of `Cc1cccc2c(=O)c3cccc(CC(=O)O)c3oc12`, the TGI in assay [1], in [2], in [3], in assay [4], in assay [5] and in [6] was above 100 µM each time. For the same molecule, the TGI in assay [7], in [8], in assay [9] and in [10] was above 100 µM each time.

(Values after PubChem BioAssay (NCI).)
